The results in this text go back to ChEMBL document CHEMBL1201862, “PubChem BioAssay data set” (2004).

Usually GI50 stands for the concentration that inhibits growth by half.

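Assay format: 96-well plates, 48-hour exposure. Here, GI50 denotes the concentration required for 50% inhibition of growth.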 Active and inactive are the calls of the source. No stated cut-off is given here; in the data, active = GI50 up to about 1.1 µM and inactive = higher.

Experiment in all cases: DTP human tumour cell line panel, 48 h
Assay [1] has as its system COLO 205.
In assay [2] the test system is UO-31.
The test system of assay [3] is RXF 393.
Assay [4] deals with EKVX.
Assay [5] concerns HL-60.
Assay [6] deals with MDA-MB-435.
Assay [7] relates to CCRF-CEM.
For assay [8], the system named is K562.
The subject of assay [9] is ACHN.
In assay [10] the test system is HOP-92.
Assay [11] deals with MDA-MB-231.
In assay [12] the test system is UACC-257.
Assay [13] relates to T47D.
Assay [14] concerns TK-10.
In assay [15] the test system is NCI-H522.
The test system of assay [16] is SNB-19.
Assay [17] has as its system NCI-H226.
The subject of assay [18] is HT-29.
Assay [19] deals with U-251.
In assay [20] the test system is RPMI-8226.

As for `CCOC(=O)c1c(C)noc1/N=N/N(CCO)CCO`, the GI50 in assay [1] is 23.1 µM (inactive); in assay [2], 25.5 µM (inactive); in assay [3], 15.1 µM (inactive); in assay [4] it was 39.9 µM (inactive); in assay [5] it was 26.1 µM (inactive); in assay [6] it was 34 µM (inactive). For the same compound, the GI50 in assay [7] was 16.9 µM (inactive); in assay [8] it was 29 µM (inactive); in [9], 29 µM (inactive); in assay [10], 24.9 µM (inactive); in assay [11], 38.9 µM (inactive); in assay [12], 25.6 µM (inactive). The GI50 was 10.8 µM (inactive) in assay [13]; 56.1 µM (inactive) in assay [14]; 24.2 µM (inactive) in [15]; 37.2 µM (inactive) in assay [16]; 23.6 µM (inactive) in [17]; 33.4 µM (inactive) in [18]. Moreover, the GI50 in [19] was 28.4 µM (inactive).

Regarding `CC1(C)S[C@@H]2[C@H](NC(=O)[C@H](N)c3ccccc3)C(=O)N2[C@H]1C(=O)O` [AMPICILLIN], the GI50 in assay [1], in assay [2], in assay [4], in [5], in [6] and in assay [7] was > 100 µM (inactive) each time. The GI50 in [9], in assay [10], in [11], in assay [12], in [13] and in [14] was > 100 µM (inactive) in each case. Further, the GI50 is 40.1 µM (inactive) in assay [15]; > 100 µM (inactive) in assay [16]; > 100 µM (inactive) in assay [18]; > 100 µM (inactive) in assay [19]; > 100 µM (inactive) in assay [20].

For `O=c1n(/N=C/c2ccccc2)c(=O)n2n1C1C=CC2CC1`, the GI50 in assay [1], in assay [2], in [4], in assay [5], in assay [6] and in [7] was > 100 µM (inactive) in each case. Moreover, the GI50 in assay [8], in assay [9], in assay [10], in assay [11], in [12] and in assay [13] was > 100 µM (inactive) in each case. In addition, the GI50 in assay [14], in [16], in [17], in assay [18], in assay [19] and in assay [20] was > 100 µM (inactive) throughout.

Take `CNC1C(O)C(OC2C(N)CC(N)C(OC3OC(CN)=CCC3N)C2O)OCC1(C)O` (stereo unspecified): the GI50 in assay [1], in assay [2], in assay [4], in assay [5], in [6] and in [7] was > 100 µM (inactive) each time. The GI50 in assay [8], in [9], in assay [10], in [11], in assay [12] and in [13] was > 100 µM (inactive) in each case. Also, the GI50 in [15], in [16], in assay [17], in [18], in assay [19] and in [20] was > 100 µM (inactive) in each case.

Consider `COc1ccc(-c2[nH]c3c4c(nc5c(c24)C(=O)CC(C)(C)C5)CC(C)(C)C3)cc1`, for which the GI50 in assay [1] is 63.8 µM (inactive); in assay [2], 61.1 µM (inactive); in assay [3] it was 73.5 µM (inactive); in assay [4] it was 47.3 µM (inactive); in assay [5] it was 55.1 µM (inactive); in assay [6], 50.2 µM (inactive). Further, the GI50 in assay [7] is 11.4 µM (inactive); in [8], 28.4 µM (inactive); in assay [9], 95.5 µM (inactive); in assay [10], 39.6 µM (inactive); in [11], 50.9 µM (inactive); in assay [12], 68.5 µM (inactive). For the same compound, the GI50 is 44.5 µM (inactive) in assay [13]; > 100 µM (inactive) in assay [14]; 54.5 µM (inactive) in assay [15]; > 100 µM (inactive) in assay [16]; 68.7 µM (inactive) in assay [17]; 43.9 µM (inactive) in assay [18]. Further, the GI50 in assay [19] was 48.9 µM (inactive).

Turning to `CC12CC(C/C1=N/O)C(C)(C)C2` (stereo unspecified), the GI50 in assay [1], in assay [2], in assay [3], in assay [4], in assay [5] and in [6] was > 100 µM (inactive) throughout. Besides, the GI50 in assay [7], in assay [8], in assay [9], in assay [10], in assay [11] and in [12] was > 100 µM (inactive) each time. The GI50 in assay [13], in [14], in assay [15], in [16], in [17] and in assay [18] was > 100 µM (inactive) throughout. Besides, in assay [19], the GI50 is > 100 µM (inactive).

Consider `COc1cc(OCCN(C)C)c2[nH]c(C(=O)N3CC(CCl)c4c3cc(N)c3ccccc43)cc2c1` (stereo unspecified), for which the GI50 in assay [1], in [2], in assay [3], in assay [4], in [6] and in assay [7] was < 0.01 µM (active) in each case. Moreover, the 50% growth inhibitory concentration (GI50) in [9] was < 0.01 µM (active); in assay [10], < 0.01 µM (active); in [11], < 0.01 µM (active); in [12], < 0.01 µM (active); in [13], 0.0139 µM (active); in [14] it was < 0.01 µM (active). The GI50 in [15], in [16], in assay [17], in [18], in assay [19] and in [20] was < 0.01 µM (active) in each case.

With `CN1C(=O)C(=CNc2ccc(Cl)cc2Cl)C(=O)N(C)C1=O`, the GI50 was > 100 µM (inactive) in assay [1]; > 100 µM (inactive) in assay [2]; > 100 µM (inactive) in [3]; > 100 µM (inactive) in assay [4]; > 100 µM (inactive) in assay [6]; 13.9 µM (inactive) in assay [7]. For the same compound, the GI50 in assay [8], in assay [9], in assay [10], in assay [11], in assay [12] and in assay [13] was > 100 µM (inactive) in each case. The GI50 in [14], in assay [15], in [16], in assay [17], in assay [18] and in assay [19] was > 100 µM (inactive) each time. Besides, the GI50 in [20] is > 100 µM (inactive).

Regarding `COC1=CC(=O)c2c(O)c3c(c(O)c2C1=O)OC1(Oc2c(cc4cc(C)oc(=O)c4c2O)CC1O)C3O` (stereo unspecified), the GI50 in assay [1] was 32.8 µM (inactive); in assay [2] it was 55.7 µM (inactive); in assay [4] it was 24.9 µM (inactive); in assay [5] it was 33.3 µM (inactive); in assay [6], 33.7 µM (inactive); in assay [7] it was 30.1 µM (inactive). The GI50 in assay [8] is 42.8 µM (inactive); in assay [9], 41.3 µM (inactive); in [10], > 100 µM (inactive); in assay [11], 24 µM (inactive); in [12] it was 40.6 µM (inactive); in assay [13] it was 38.1 µM (inactive). In addition, the GI50 in [14] is 50.9 µM (inactive); in assay [15], 25.1 µM (inactive); in assay [16], 20.9 µM (inactive); in assay [18], 48.4 µM (inactive); in assay [19], 39.9 µM (inactive); in assay [20] it was 29.4 µM (inactive).

On to `CC(C)Oc1c(C2(c3ccccc3O)SCCCS2)c(=O)c1=O`, for which the GI50 in assay [1] was > 100 µM (inactive); in assay [2], 47.9 µM (inactive); in assay [3] it was 75.9 µM (inactive); in assay [4] it was 55.5 µM (inactive); in assay [5], 54.2 µM (inactive); in assay [6], > 100 µM (inactive). The GI50 is 20.5 µM (inactive) in assay [7]; > 100 µM (inactive) in [9]; 19.7 µM (inactive) in [10]; 69.2 µM (inactive) in assay [11]; > 100 µM (inactive) in assay [12]; 38.9 µM (inactive) in assay [13]. Besides, the GI50 in assay [14] was > 100 µM (inactive); in [15], 23.6 µM (inactive); in [16], 73.3 µM (inactive); in assay [17], 63.5 µM (inactive); in assay [18] it was > 100 µM (inactive); in [19] it was > 100 µM (inactive).

In the case of `c1cncc(CNc2ncn[nH]2)c1`, the GI50 in [1], in [2], in assay [3], in assay [4], in assay [6] and in assay [8] was > 100 µM (inactive) throughout. Besides, the GI50 in assay [9], in assay [10], in [11], in assay [12], in assay [13] and in [14] was > 100 µM (inactive) in each case. For the same compound, the GI50 in assay [15], in assay [16], in assay [17], in assay [18], in [19] and in assay [20] was > 100 µM (inactive) in each case.
